The record followed here is PubChem BioAssay (NCI).

What all share (test): NCI anticancer screen, dose series, 48 h
The test system of test [1] is HCT-15 colon.
The subject of test [2] is NCI-H226 lung.
Test [3] concerns UACC-62 melanoma.
In test [4] the test system is CCRF-CEM leukemia.
For test [5], the system named is OVCAR-4 ovarian.
Test [6] deals with OVCAR-8 ovarian.
The subject of test [7] is TK-10 renal.
The test system of test [8] is SK-MEL-2 melanoma.
The test system of test [9] is SNB-19 CNS.
Test [10] relates to K-562 leukemia.

Each structure is given as a SMILES string. Where “and” joins values, the source holds several entries; their conditions need not be identical. Equal entries are not always repeated.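 Growth conditions: 96-well plates. Treatment: test compound, 48 hours, 5 concentrations. Analysis: linear interpolation between bracketing concentrations; unreached endpoints set to highest concentration. GI50 is the concentration that inhibits growth by half. TGI marks complete inhibition of growth.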

As for `Cc1ccsc1-c1ccc2c(c1)COC2(CCCN(C)C)c1ccc(F)cc1` (centres undefined), the GI50 is 3.09 µM in [1]; 8.59 µM in [2]; 1890 nM in [3]; 2.73 µM in [4]; 3.27 µM in [5]; 3.28 µM in test [6]. The GI50 in [7] was 3.04 µM; in test [8], 2.78 µM; in test [9], 2.77 µM; in test [10], 2460 nM. For the same compound, the TGI in test [1] was found to be 10.9 µM; in test [2] it was 25.3 µM; in [3] it was 4.04 µM; in [4], 8.56 µM; in test [5] it was 13 µM; in test [6] it was 13.2 µM. Moreover, the TGI in [7] amounted to 12.8 µM; in [8], 7.48 µM; in test [9], 10.3 µM; in [10], 8.05 µM.

For the compound `Cc1cccc(Cl)c1NC(=O)c1cnc(Nc2cc(N3CCOCC3)cc(S(C)(=O)=O)c2)s1`, the GI50 in [1] is 3 µM; in test [3], 922 nM; in test [4], over 10 µM; in test [5] it was over 10 µM; in test [6], 0.516 µM; in test [7] it was 0.132 µM. The figures for the GI50 in test [8], in test [9] and in test [10] were over 10 µM, over 4.95 µM and 5.69 nM, respectively. The TGI in test [1], in test [2], in test [3], in test [4], in [5] and in test [6] was over 10 µM throughout. Moreover, the TGI in [7] is 1.15 µM; in test [8] it was over 10 µM; in test [9], over 10 µM; in [10] it was over 10 µM.

Take `COc1ccc(-c2cn(-c3cc(OC)c(OC)c(OC)c3)c(=O)[nH]2)cc1OC`: the GI50 in test [1] is over 100 µM; in [2] it was over 100 µM; in [3], over 100000 nM; in test [4], over 100 µM; in [5], over 100 µM; in [6], over 100 µM. In addition, the GI50 was over 100 µM in [7], over 100 µM in test [8], over 100 µM in test [9] and over 100000 nM in test [10]. Further, the TGI in test [1], in test [2], in test [3], in test [4], in test [5] and in test [6] was over 100 µM throughout. In addition, the TGI in [7], in test [8], in [9] and in test [10] was over 100 µM throughout.

`C=CC(=O)N1CC[C@H](n2nc(C#Cc3cc(OC)cc(OC)c3)c3c(N)ncnc32)C1`: the GI50 in test [1] was 5.53 µM; in [2], 6.42 µM; in [3], 6950 nM; in test [4] it was 4.57 µM; in test [5] it was 3.47 µM; in [6], 8.36 µM. Moreover, the GI50 in test [7] was 4.03 µM; in test [8], 8.49 µM; in [9], 7.66 µM; in [10] it was 13200 nM. In addition, the TGI in test [1], in test [2], in test [3], in [4], in test [5] and in test [6] was over 100 µM throughout. For the same compound, the TGI is over 100 µM in [7], 52.1 µM in test [8], over 100 µM in [9] and over 100 µM in [10].

For `COC(=O)CNc1nc(N(C)O)nc(N(C)O)n1`, the GI50 in test [1] is 0.551 µM; in test [2] it was 8.31 µM; in [3] it was 4300 nM; in [4] it was 0.697 µM; in test [5] it was 2.85 µM; in test [6] it was 3.31 µM. Further, the GI50 in [7] is 1.61 µM; in test [8], 3.45 µM; in [9] it was 27.3 µM; in [10] it was 2430 nM. Besides, the TGI in [1] was over 100 µM; in [2], over 100 µM; in test [3], 29.1 µM; in [4] it was over 100 µM; in test [5], over 100 µM; in [6], over 100 µM. Moreover, the TGI in test [7] is over 100 µM; in test [8] it was 25.7 µM; in test [9], over 100 µM; in test [10], over 100 µM.

Regarding `CC(C)Cc1ccc(C(C)C(=O)NCc2ccc(Cn3c(=O)sn(CCCI)c3=O)cc2)cc1` (centres undefined), the GI50 was 0.237 µM in [1]; 0.884 µM in test [2]; 1170 nM in [3]; 0.279 µM in test [4]; 0.736 µM in test [5]; 0.523 µM in [6]. Moreover, the GI50 was 0.373 µM in [7], 1.34 µM in test [8], 1.45 µM in test [9] and 388 nM in test [10]. The TGI in test [1] was 0.738 µM; in test [2], 2.32 µM; in test [3], 2.44 µM; in [4] it was over 100 µM; in [5], 2.12 µM; in test [6], 1.85 µM. Also, the TGI in [7] was 0.95 µM; in [8] it was 2.88 µM; in test [9], 2.78 µM; in test [10], over 100 µM.

On to `CC1Cc2ccccc2N1C(=O)Cc1nc(N2CCOCC2)cc(=O)[nH]1` (centres undefined), for which the GI50 is 16.1 µM and 27.7 µM in test [1]; 36.4 µM and 32.5 µM in test [2]; 856 nM and 1730 nM in [3]; 20.7 µM and 46.7 µM in test [4]; 28.1 µM and 31.4 µM in [5]; 34.8 µM and 32 µM in test [6]. For the same compound, the GI50 in [7] is 14.5 µM and 32.1 µM; in [8] it was 37.1 µM and 49.5 µM; in test [9] it was 25.3 µM and 45.8 µM; in [10], over 100000 nM. Also, the TGI in test [1], in test [2], in test [3], in [4], in test [5] and in test [6] was over 100 µM in each case. Also, the TGI in [7], in [8], in [9] and in test [10] was over 100 µM each time.

In the case of `CC(C)=NNC(=S)NC12CC3CC(CC(C3)C1)C2`, the TGI in [1], in [2], in [3], in test [4], in test [5] and in test [6] was over 100 µM each time. Further, the TGI in test [7], in test [8], in [9] and in test [10] was over 100 µM in each case.
